Results on 1 molecule are retold here after the NIST ThermoML archive (doi:10.1016/j.jct.2011.12.010).

The series in a line: Molar enthalpy of transition or fusion. Conditions: Crystal; Adiabatic calorimetry.

± gives the expanded uncertainty stated by the source.

Consider `CC(C)(C)Cc1ccccc1` [(2,2-dimethylpropyl)benzene], for which the “Molar enthalpy of transition or fusion” value is 3.676 ± 0.0239 kcal/mol.
